Data taken from patent US20010044445A1, “AZOLE INHIBITORS OF CYTOKINE PRODUCTION” (priority 1999, published 2001).
Like-named read-outs stand apart in the source and are kept apart here.

Tests used:
[1] = system: Human peripheral blood mononuclear cells; experiment: Human Concanavalin-A Proliferation Assay (Con HU Assay); format: cell-based; settings: concanavalin-A stimulated human PBMC; for inhibition at 10 µM: concentration 10 μm (in parentheses in the cell); for IC50: tritiated thymidine
Summary of the method: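 Histopaque-isolated human PBMC (50,000/well) were pre-incubated 15 min with compounds, then stimulated with concanavalin-A at 2.5 μg/ml final for 3 days at 37 °C, 5% CO2. Proliferation measured by 6 h pulse with 0.5 μCi/well [3H]thymidine and beta counting.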

IL-4 = experiment: Measurement of IL-4 Levels in Human T Cells (IL-4 Assay); format: cell-based; settings: Human T cells (HUT 78), phorbol 12-myristate 13-acetate and anti-CD3, 32 hours, ELISA, read-out: IL-4 Inhibition IC50
Description: (§1) Measurement of IL-5 and IL-4 Levels in Human T Cells (IL-4 and IL-5 Assays) Human T cells (HUT 78) were cultured to 1×10^6/mL in RPMI 1640 medium containing 10% fetal calf serum, 100 U/mL penicillin and 100 μg/mL streptomycin. Cultures were then centrifuged, to pellet the cells, and cells resuspended in fresh medium to the same density. 0.2 mL samples of cells were incubated in 96-well plates with 8 μL of various concentrations of compound freshly diluted with the above medium from 100 mM solvent stocks (ethanol or DMSO). Immediately after addition of compound, cells were stimulated by addition of 2 ng/mL phorbol 12-myristate 13-acetate (1 μL of freshly prepared solution of stock (in DMSO) diluted with the above medium added to cells) and 750 μg/mL anti-CD3 (pre-coated at 4° C. overnight). Cell cultures were incubated at 37 OC for 32 hours, then cells pelleted by centrifugation and the supernatants harvested for ELISA. IL-4 and IL-5 ELISA's were performed according to standard procedures. Inhibition was calculated relative to cytokine levels produced from control stimulated cells not treated with compound.

IL-5 = experiment: Measurement of IL-5 Levels in Human T Cells (IL-5 Assay); format: cell-based; settings: Human T cells (HUT 78), phorbol 12-myristate 13-acetate and anti-CD3, 32 hours, ELISA, read-out: IL-5 Inhibition IC50
Description: as §1

IL-2 = experiment: CD3 and CD28 Activation of Peripheral Blood T Cells and Determination of Secreted IL-2 Levels (C28 HU Assay); format: cell-based, Human; settings: PBMC stimulated with anti-CD3 and anti CD28 mAbs, 24 hour; for IC50: IL-2 secretion; for inhibition at 100 µM: concentration 100 μM (in c2); for inhibition at 100 µM / inhibition at 1 µM: read-out: % Inhibition of IL-2 secretion (At concentrations of 1, 10, or 100 μM); for inhibition at 1 µM: concentration 1 μM (in c2)
Description: Human peripheral blood mononuclear cells were cultured in RPMI 1640 medium supplemented with 10 μg/ml gentamicin, 50 μM 2-mercaptoethanol, 1X MEM non-essential amino acids (Sigma Chemical Co., St. Louis, Mo.), 100 U/ml sodium penicillin G, 100 μg/ml streptomycin sulfate, 2 mM L-glutamine, 1 mM sodium pyruvate (Life Technologies, Grand Island, N.Y.) and 10% fetal bovine serum (Hyclone, Logan, Utah) at 37° C. with 5% CO2.
Human peripheral blood mononuclear cells (PBMC) were isolated by Ficoll-Hypaque seperation. PBMCs were stimulated with a combination of immobilized anti-CD3 and soluble anti CD28 mAbs as described in Faltynek, et al. J. Enzyme Inhibition 1995, 9, 111-122, hereby incorporated by reference. Following a 24 hour incubation, cell supernatants were harvested and IL-2 levels were determined. 100 μl of 5 μg/ml monoclonal murine anti-human IL-2 antibody (Biosource International) in D-PBS was added to 96 well Maxisorb plates (Nunc) and incubated at 4° C. overnight. Plates were washed 4 times with D-PBS containing 0.05% Tween 20 (wash buffer) and blocked with D-PBS containing 1% BSA and 10 mM NaN3 (Diluent/Blocking buffer) for 1-3 hours at room temperature or overnight at 4° C. Plates were washed and recombinant human IL-2 diluted (at 10,000, 5,000, 2,500, 1,250, 625, 312.5, 156.25, 78, 39, 20 pg/ml) in diluent/blocking buffer containing a matched percentage of complete RPMI 1640 medium as the unknown samples. Tissue culture supernatant at various dilutions were added in triplicate at 100 μl/well. Plates were incubated for 2 hours at room temperature and washed 4 times with wash buffer. 100 pl of rabbit anti-human IL-2 (10 μg/ml, Genzyme) was added and incubated for 1 hour at room temperature. The incubation was followed by 4 washes and subsequent addition of 100 pl of 1:2000 dilution of alkaline phosphatase-conjugated goat anti-rabbit F(ab′)2 (Biosource International). After 1 hour the plates were washed 4 times and 100 μl of pNPP (Southern Biotech or Sigma) at 1 mg/ml in buffer was added. Color development was allowed to proceed at room temperature for 20 minutes before addition of 50 μl of 2 N NaOH. Absorbance at 405 nm was determined using a plate reader (Molecular Devices). IL-2 concentrations were calcualted using SoftMax (Molecular Devices) based on the IL-2 standard solutions.

[2] = Homo sapiens, PBMC, 72 h, 3 days, read-out: % Inhibition of proliferation (at concentrations of 1,10, or 100 μm)
[3] = concentration 100 μm (in parentheses in the cell), 3 days

| SMILES | IC50 ([1]; Homo sapiens, PBMC) [nM] | IC50 (IL-4; HuT78) [nM] | IC50 (IL-5; HuT78) [nM] | melting point [°C] | inhibition at 1 µM (IL-2; Homo sapiens) [%] | further results |
| --- | --- | --- | --- | --- | --- | --- |
| O=C(Nc1ccc(-n2nc(C(F)(F)F)cc2C(F)(F)F)cc1)c1ccncc1F [Example 264, N-[4-[3,5-bis(trifluoromethyl)-1H-pyrazol-1-yl]phenyl]-3-fluoro-4-pyridinecarboxamide] | 42 | 4.8 | 22 |  |  | inhibition at 10 µM [1, 2]: 100% |
| O=C(Nc1ccc(-n2nc(C(F)(F)F)cc2C(F)(F)F)cc1)C1=CCCCC1 [Example 6, N-[4-[3,5-bis(trifluoromethyl)-1H-pyrazol-1-yl]phenyl]-1-cyclohexene-1-carboxamide] | 98 | 8 | 50 | 146 to 148 |  | inhibition at 10 µM [1, 2]: 100% |
| O=C(Nc1ccc(Cl)cc1)c1ccc(-n2nc(C(F)(F)F)cc2C(F)(F)F)cc1 [Example 24, N-4-[3,5-bis(trifluoromethyl)-1H-pyrazol-1-yl]-N-(4-chlorophenyl)benzamide] |  |  |  |  |  | IC50 [1]: 301 nM; % Inhibition of proliferation (at concentrations of 1,10, or 100 μm) [1, 3]: 98(100) %; IC50 (IL-2): 380 nM; IC50 (IL-4): 150 nM; IC50 (IL-5): 150 nM |
| Cc1noc(C)c1C(=O)Nc1ccc(-n2nc(C(F)(F)F)cc2C(F)(F)F)cc1 [Example 266, N-[4-[3,5-bis(trifluoromethyl)-1H-pyrazol-1-yl]phenyl]-3,5-dimethyl-4-isoxazolecarboxamide] | 322 | 110 | 150 | 179 to 180 |  | inhibition at 100 µM ([1]; Homo sapiens, PBMC, 72 h, concentration 100 μm (in parentheses in the cell), 3 days, read-out: % Inhibition of proliferation (at concentrations of 1,10, or 100 μm)): 100%; IC50 (IL-2; Homo sapiens): 314 nM; inhibition at 100 µM (IL-2; Homo sapiens): 88% |
| C=CC[C@@H]1/C=C(\C)C[C@H](C)C[C@H](OC)[C@H]2O[C@@](O)(C(=O)C(=O)N3CCCC[C@H]3C(=O)O[C@H](/C(C)=C/[C@@H]3CC[C@@H](O)[C@H](OC)C3)[C@H](C)[C@@H](O)CC1=O)[C@H](C)C[C@@H]2OC [FK-506, tacrolimus, reference compound] |  | 0.7 | 0.5 |  |  |  |
| Cc1nnsc1C(=O)Nc1ccc(-n2nc(C(F)(F)F)cc2C(F)(F)F)cc1 [Example 250, N-[4-[3,5-bis(trifluoromethyl)-1H-pyrazol-1-yl]phenyl]-4-methyl-1,2,3-thiadizole-5-carboxamide] |  |  |  |  |  | IC50 [1]: 173 nM; % Inhibition of proliferation (at concentrations of 1,10, or 100 μm) [1, 3]: 100(100) %; IC50 (IL-2): 102 nM; IC50 (IL-4): 50 nM; IC50 (IL-5): 80 nM |
| Cc1ccnn1-c1ccc(NC(=O)c2ccc(Cl)cc2)cc1 [Example 284, 4-Chloro-N-[4-(5-methyl-1H-pyrazol-1-yl)phenyl]benzamide] |  |  |  | 189 to 191 | 17 |  |
| O=C(Nc1ccc(-n2nc(C(F)(F)F)cc2C(F)(F)F)cc1)c1ccc(Oc2cc(Cl)cc(Cl)c2)o1 [Example 8, N-[4-[3,5-bis(trifluoromethyl)-1H-pyrazol-1-yl]phenyl]-5-(3,5-dichlorophenoxy)-2-furancarboxamide] |  |  |  | 152 to 153 | 20 |  |
| O=C(Nc1ccc(-n2nc(C(F)(F)F)cc2C(F)(F)F)cc1)C1CCc2ccccc2C1 (centres unmarked) [Example 153, N-[4-[3,5-bis(trifluoromethyl)-1H-pyrazol-1-yl]phenyl]-1,2,3,4-tetrahydro-2-naphthalenecarboxamide] |  |  |  | 199 to 201 |  | IC50 (IL-2; Homo sapiens): 457 nM; inhibition at 100 µM (IL-2; Homo sapiens): 94% |
| Cc1c(Cl)cccc1NC(=O)Nc1ccc(-n2nc(C(F)(F)F)cc2C(F)(F)F)cc1 [Example 38, N-[4-[3,5-bis(trifluoromethyl)-1H-pyrazol-1-yl]phenyl]-N′-(3-chloro-2-methylphenyl)urea] |  |  |  | 193 to 196 | 16 |  |
| O=C(Nc1ccc(-n2nc(C(F)(F)F)cc2C(F)(F)F)cc1)c1cccc(F)c1F [Example 209, N-[4-[3,5-bis(trifluoromethyl)-1H-pyrazol-1-yl]phenyl]-2,3-difluorobenzamide] | 33 | 5 | 38 | 147 to 149 |  | inhibition at 10 µM [1, 2]: 99% |
| Cc1noc(C)c1C(=O)Nc1ccc(-n2nccc2C)cc1 [Example 286, 3,5-dimethyl-N-[4-(5-methyl-1H-pyrazol-1-yl)phenyl]-4-isoxazolecarboxamide] |  |  |  | 151 to 152 | 2 |  |
